Broadly, the IC50 is the concentration needed to halve the response being measured.

The target in one assay is T1, TEM-1 (Escherichia coli, UniProt P62593).
T1 construct: made in house; host or cells: E. coli
Nature of the assay: β-Lactamase inhibitory activity, nitrocefin hydrolysis. Format: biochemical. As to conditions: class (A); 30 min pre-incubation.

For another assay, the target named is T2, SHV-1 (Klebsiella pneumoniae, UniProt P0AD64).
T2 construct: made in house; host or cells: E. coli
Described as above. It counts as biochemical.

Another assay addresses T3, CTX-M-15 (Escherichia coli, UniProt Q9EXV5).
T3 construct: made in house; host or cells: E. coli
The assay is described as above. Format: biochemical. Conditions: class (A); 30 min pre-incubation.

Another assay concerns the target T4, KPC-2 (Klebsiella pneumoniae, UniProt Q9F663).
T4 construct: made in house; host or cells: E. coli
The assay is described as above. Conditions: class (A); 30 min pre-incubation. It counts as biochemical.

The next assay addresses AmpC (P99) (Enterobacter cloacae, UniProt P05364). Nature of the assay: biochemical. The protocol:
(§1) Method 1: β-Lactamase Inhibitory Activity, Determination of IC50 (Table 1)
(§2) Enzyme activity was monitored by spectrophotometric measurement of nitrocefin (NCF-TOKU-E, N005) hydrolysis at 485 nm, at room temperature and in assay buffer A: 100 mM Phosphate pH7, 2% glycerol and 0.1 mg/mL Bovine serum albumin (Sigma, B4287). Enzymes were cloned in E. coli expression vector, expressed and purified in house using classical procedures. To a transparent polystyrene plate (Corning, 3628) were added in each well 5 μL DMSO or inhibitor dilutions in DMSO and 80 μL enzyme in buffer A. Plates were immediately read at 485 nm in a microplate spectrophotometer (BioTek, PowerWave HT) to enable background subtraction. After 30 min of pre-incubation at room temperature, 15 μL of NCF (200 μM final) were finally added in each well. Final enzyme concentrations were 0.1 nM (TEM-1), 0.075 nM (SHV-1), 0.4 nM (CTX-M-15), 1 nM (KPC-2), 0.2 nM (P99 AmpC), 0.2 nM (CMY-37), 0.4 nM (AmpC P. aeruginosa), 0.2 nM (OXA-1), 1.2 nM (OXA-11), 0.4 nM (OXA-15) and 0.3 nM (OXA-48). After 20 min incubation at room temperature, plates were once again read at 485 nm. Enzyme activity was obtained by subtracting the final signal by the background, and was converted to enzyme inhibition using non inhibited wells. IC50 curves were fitted to a classical Langmuir equilibrium model with Hill slope using XLFIT (IDBS).

The target in the next assay is AmpC (PAE) (Pseudomonas aeruginosa, UniProt P24735). Nature of the assay: biochemical. The protocol: as §1, §2
Assay [1] has as its target CMY-37 (Citrobacter freundii). As to the kind of experiment: β-Lactamase inhibitory activity, nitrocefin hydrolysis. Format: biochemical.
A further assay deals with T5, OXA-1 (Escherichia coli, UniProt P13661).
T5 construct: made in house; host or cells: E. coli
The assay is described as above. It counts as biochemical. As to conditions: class (D); 30 min pre-incubation.

A further assay has as its target T6, OXA-11 (Pseudomonas aeruginosa, UniProt Q06778).
T6 construct: made in house; host or cells: E. coli
Described as above. It counts as biochemical.

In another assay the target is T7, OXA-15 (Pseudomonas aeruginosa, UniProt Q51574).
T7 construct: made in house; host or cells: E. coli
Described as above. Format: biochemical.

A further assay addresses T8, OXA-48 (Klebsiella pneumoniae, UniProt Q6XEC0).
T8 construct: made in house; host or cells: E. coli
The description is as above. It counts as biochemical. As to conditions: class (D); 30 min pre-incubation.

Assay [2] deals with E. cloacae. As to the kind of experiment: MIC of compounds alone, broth microdilution. As to conditions: Enterobacter cloacae, ECL P99, beta-lactamases AmpC, read-out: MIC. Format: cell-based. The protocol: (§3) Method 2: MIC of Compounds and Synergy with Ceftazidime Against Bacterial Isolates (Table 2 and 3)
(§4) Compounds of the present invention were assessed against genotyped bacterial strains alone or in combination with the β-lactam ceftazidime. In the assays, MICs of said compounds, or of ceftazidime at fixed concentrations of said compounds were determined by the broth microdilution method according to the Clinical Laboratory Standards Institute (CLSI—M7-A7). Briefly, compounds alone according to the invention were prepared in DMSO and spotted (2 μL each) on sterile polystyrene plates (Corning, 3788). Compounds and ceftazidime dilutions were prepared in DMSO and spotted (1 μL each) on sterile polystyrene plates (Corning, 3788). Log phase bacterial suspensions were adjusted to a final density of 5×10^5 cfu/mL in cation-adjusted Mueller-Hinton broth (Beckton-Dickinson) and added to each well (98 μL). Microplates were incubated for 16-20 h at 35° C. in ambient air. The MIC of the compounds was defined as the lowest concentration of said compounds that prevented bacterial growth as read by visual inspection. The MIC of ceftazidime at each compound concentration was defined as the lowest concentration of ceftazidime that prevented bacterial growth as read by visual inspection.
In general terms: Dilution methods test growth across graded concentrations, often in twofold steps.

The next assay has as its system E. coli. Nature of the assay: MIC of compounds alone, broth microdilution. Format: cell-based. Conditions: Escherichia coli, ECO 190317, beta-lactamases TEM-1, SHV-12, CTX-M-15 OXA-1, read-out: MIC. The protocol:
as §3, §4

The subject of assay [3] is K. pneumoniae. As to the kind of experiment: MIC of compounds alone, broth microdilution. Format: cell-based. Conditions: Klebsiella pneumoniae, alone; KPN 6299; beta-lactamases TEM-1, SHV-11 OXA-163; read-out: MIC. The protocol: as §3, §4
The subject of assay [4] is E. cloacae. Nature of the assay: Synergy with ceftazidime: MIC of ceftazidime at fixed concentration of compound. Format: cell-based. As to conditions: Enterobacter cloacae, ECL P99; beta-lactamases AmpC; read-out: MIC of CAZ + compound (4 μg/mL). The protocol:
as §3, §4

Assay [5] has as its system K. pneumoniae. The description is as above. It counts as cell-based. As to conditions: Klebsiella pneumoniae, read-out: MIC of CAZ + compound (4 μg/mL), KPN 6299; beta-lactamases TEM-1, SHV-11 OXA-163. The protocol: as §3, §4

Read-outs that look alike come from different tables or passages of the source.

`O=C1N2C[C@H](c3scnc3[C@H]2c2ncno2)N1OS(=O)(=O)[O-].[Na+]` (relative stereo) [Example 4, Sodium [trans-7-(1,2,4-oxadiazol-5-yl)-9-oxo-3-thia-5,8,10-triaza-tricyclo[6.2.1.0^2,6]undeca-2(6),4-dien-10-yl]sulfate]: the 50% inhibitory concentration (IC50) against TEM-1 turned out to be 1.1 nM; against SHV-1, 1.4 nM; against CTX-M-15, 0.64 nM; at KPC-2, 3.2 nM; against AmpC (P99), 1.1 nM; against AmpC (PAE) it was 64 nM. Also, the IC50 came out at 3.4 nM in assay [1] (class (C), 30 min pre-incubation, read-out: IC50 β-lactamase CMY-37); 170 nM against OXA-1; 6.5 nM against OXA-11; 19 nM against OXA-15; 0.34 nM against OXA-48. The MIC with E. cloacae [2] was 32 µg/mL; in the assay with E. coli it was 16 µg/mL; in the assay on K. pneumoniae [3] it was above 32 µg/mL; in the assay with E. cloacae [4], 2 µg/mL; in the assay on K. pneumoniae [5], 2 µg/mL.

Consider `O=C(O)C(F)(F)F.O=C1N2C[C@H](c3scnc3[C@H]2c2nnc[nH]2)N1OS(=O)(=O)[O-].[Na+]` (relative stereo) [Example 3, Sodium and 2,2,2-trifluoroacetate [trans-7-(4H-1,2,4-triazol-4-ium-3-yl)-9-oxo-3-thia-5,8,10-triaza-tricyclo[6.2.1.0^2,6]undeca-2(6),4-dien-10-yl]sulfate], for which the IC50 is 46 nM against TEM-1; 140 nM on SHV-1; 28 nM against CTX-M-15; 460 nM against KPC-2; 13 nM on AmpC (P99); 570 nM on AmpC (PAE). For the same compound, the IC50 in assay [1] was found to be 30 nM; against OXA-1 it was 1000 nM; against OXA-11 it was 190 nM; at OXA-15 it was 1100 nM; against OXA-48, 6.8 nM. Also, the MIC with E. coli amounted to 16 µg/mL.

Values taken from patent US10842779B2, “Heterocyclic compounds and their use in preventing or treating bacterial infections” (priority 2015, dated 2020).
